The text below walks through data of patent publication US5776944A, “7-(4-aminomethyl-3-methyloxyiminopyrroplidin-1-yl)-1-cyclopropyl-6-flu oro-4-oxo-1,4-dihydro-1,8-naphthyridine-3-carboxylic acid and the process for the preparation thereof” (LG Chemical Ltd., priority 1994, dated 1998).

In one series the test system is test strains. Description: In vitro antibacterial activity, overall finding, Biological Example 4. Format: cell-based. As to conditions: Tables 31 and 32. As for the experimental part: In order to determine the antibacterial activitiers of the E- and Z-isomner of the compound 180 which were separated in Example 203, and of 7- (4-aminomethyl-3-methyloxylminopyrrolidin-1-yl)-1-cyclopropyl-6-fluoro-4-oxo-1,4-dihydro-1,8-naphthyridine-3-carboxylic acid methanesulfonate prepared in Example 204, in vitro antibacterial activities of them were measured using agar medium dilution method. The results were as described in the following Tables 31 and 32.

For series [1] the following is noted: phosphate buffered solution.
A short description of series [2]: Moisture content according to hydration number. Format: physicochemical. As to conditions: actual moisture content, methanesulfonate hydrates. As for the experimental part:
The moisture content of the hydrate varies with the hydration number (n) of the hydrated molecule. Since the molecular weight of 7-(4-amino-methyl-3-methyloxylminopyrrolidin-1-yl)-1-cyclopropyl-6-fluoro- 4-oxo-1,4-dihydro-1,8-naphthyridine-3-carboxylic acid methanesulfonate is 485.5, the moisture content of the hydrate for n equal to 1, 1.5, 2, 2.5, 3, 3.5 or 4 is calculated to be 3.6%, […], 6.9%, 8.5%, 10.0%, 11.5% or 12.9%, respectively. However, the actual moisture content may differ from the calculated moisture content depending on differences in recrystallization conditions, drying conditions, etc.

Series [3] can be described thus: Equilibrium moisture content determination of hydrates. Format: physicochemical. As for the experimental part: Six saturated aqueous salt solutions were introduced into each desiccator to control the inner relative humidity to a specific value as represented in the following Table 28. Then, equilibrium moisture contents of 3 hydrate and 1.5 hydrate prepared in Examples 205 and 206, respectively, were determined at several relative humidities.
Specifically, 100 mg of the sample was spread on a preweighed Petri dish and the total weight was accurately measured, then three of the sample were placed in each desiccator of Table 28. The desiccators were allowed to stand at normal temperature for 7 days and then the sample was taken to be weighed. After 13 days had passed, one of the three samples inside each desiccator was taken and the moisture content of each was measured by the thermogravimetric analysis described in Test Example 2. Equilibrium moisture content at each relative humidity is represented in FIG. 3 (3 hydrate), and FIG. 4 (1.5 hydrate). […] Both hydrates are stable since they keep a constant equilibrium moisture content regardless of the relative humidity change.

A short description of series [4]: Chemical stability under heating. To be noted: for thermal stability: hydrate. As for the experimental part: The anhydride and each of the hydrates was introduced into a glass vial and maintained at 70° C.
For series [5], the system named is Enterobacter cloacae 1194E. The series is described as follows: microbe, parasite or virus in culture. Format: cell-based. As to conditions: 18 h, read-out: Minimum Inhibitory Concentration.
Series [6] has as its system Klebsiella aerogenes 1082E. Description: In vitro antibacterial activity (MIC, agar dilution), Biological Example 1. Format: cell-based. As to conditions: 18 h, Table 25, read-out: Minimum Inhibitory Concentration. Background: In agar dilution, organisms are placed on agar that contains the substance at set levels.
Series [7] relates to Pseudomonas aeruginosa 1912E. Described as above. To be noted: 18 h; Pseudomonas aeruginosa 1912E, Table 25; read-out: Minimum Inhibitory Concentration. Format: cell-based.
A short description of the next series: Pharmacokinetic test. Format: in vivo. To be noted: rat, blood, 20 mg/kg, SD rats (male); for half-life: read-out: T1/2 (biological half life) (converted).
The subject of series [8] is Staphylococcus aureus 241. Description: In vitro antibacterial activity (MIC, agar dilution), Biological Example 1. Format: cell-based. As to conditions: 18 h; Staphylococcus aureus 241, Table 25; read-out: Minimum Inhibitory Concentration.
The test system of a further series is Bacillus subtilis 6633. Described as above. Format: cell-based. To be noted: 18 h; Bacillus subtilis 6633, Table 25; read-out: Minimum Inhibitory Concentration.
In series [9] the test system is Staphylococcus aureus giorgio. The series is described as above. Format: cell-based. To be noted: 18 h, Table 25, read-out: Minimum Inhibitory Concentration.
Series [10] relates to Staphylococcus epidermidis 178. Described as above. As to conditions: 18 h; Staphylococcus epidermidis 178, Table 25; read-out: Minimum Inhibitory Concentration. Format: cell-based.
Series [11] relates to Staphylococcus aureus 6538p. The description is as above. Format: cell-based. As to conditions: 18 h, Table 25, read-out: Minimum Inhibitory Concentration.
The test system of series [12] is Escherichia coli TEM3 3455E. The series is described as follows: microbe, parasite or virus in culture. To be noted: TEM33455E, 18 h, read-out: Minimum Inhibitory Concentration. Format: cell-based.
In series [13] the test system is Pseudomonas aeruginosa 10145. Description: In vitro antibacterial activity (MIC, agar dilution), Biological Example 1. To be noted: 18 h; Pseudomonas aeruginosa 10145, Table 25; read-out: Minimum Inhibitory Concentration. Format: cell-based.
For another series, the system named is Escherichia coli 851E. Described as above. Format: cell-based. As to conditions: 18 h, Table 25, read-out: Minimum Inhibitory Concentration.
The test system of series [14] is Streptococcus faecalis 29212. The description is as above. Format: cell-based. As to conditions: Enterococcus faecalis, 18 h; Streptococcus faecalis 29212, Table 25; read-out: Minimum Inhibitory Concentration.
The subject of series [15] is Salmonella typimurium 14028. The series is described as above. Format: cell-based. As to conditions: 18 h; Salmonella typimurium 14028, Table 25; read-out: Minimum Inhibitory Concentration.
For series [16], the system named is Staphylococcus epidermidis 887E. Described as above. Format: cell-based. To be noted: 18 h, Table 25, read-out: Minimum Inhibitory Concentration.
Another series relates to Enterobacter cloacae P99. Description: microbe, parasite or virus in culture. Format: cell-based. As to conditions: P99, 18 h, read-out: Minimum Inhibitory Concentration.
For series [17], the system named is Escherichia coli TEM5 3739E. Description: microbe, parasite or virus in culture. Format: cell-based. As to conditions: TEM53739E, 18 h, read-out: Minimum Inhibitory Concentration.
For series [18], the system named is Acinetobacter calcoaceticus 15473. The series is described as follows: In vitro antibacterial activity (MIC, agar dilution), Biological Example 1. Format: cell-based. As to conditions: 18 h; Acinetobacter calcoaceticus 15473, Table 25; read-out: Minimum Inhibitory Concentration.
The subject of the next series is Micrococcus luteus 9341. The series is described as above. Format: cell-based. As to conditions: 18 h; Micrococcus luteus 9341, Table 25; read-out: Minimum Inhibitory Concentration.
The test system of another series is Escherichia coli 3190Y. Described as above. To be noted: 18 h, Table 25, read-out: Minimum Inhibitory Concentration. Format: cell-based.
Another series relates to Staphylococcus aureus 77. The series is described as above. Format: cell-based. To be noted: 18 h; Staphylococcus aureus 77, Table 25; read-out: Minimum Inhibitory Concentration.
A further series deals with Escherichia coli 10536. The series is described as above. Format: cell-based. To be noted: 18 h; Escherichia coli 10536, Table 25; read-out: Minimum Inhibitory Concentration.
Series [19] deals with Citrobacter diversus 2046E. The series is described as above. Format: cell-based. As to conditions: Citrobacter koseri, 18 h, Table 25, read-out: Minimum Inhibitory Concentration.
Series [20] relates to Escherichia coli TEM9 2639E. Description: microbe, parasite or virus in culture. Format: cell-based. To be noted: TEM92639E, 18 h, read-out: Minimum Inhibitory Concentration.
In series [21] the test system is Klebsiella aerogenes 1976E. The series is described as follows: In vitro antibacterial activity (MIC, agar dilution), Biological Example 1. As to conditions: 18 h, Table 25, read-out: Minimum Inhibitory Concentration. Format: cell-based.
The nature of another series: physchem. As to conditions: phosphate buffered solution.

Values after ≈ are worked out from the molar mass of the structure shown. Where two headings read alike, the source gives them in different places. Bounds are passed on as bounds.

For the compound `CON=C1CN(c2nc3c(cc2F)c(=O)c(C(=O)O)cn3C2CC2)CC1CN` (centres unmarked) [free form, 7-(4-aminomethyl-3-methyloxyiminopyrrolidin-1-yl)-1-cyclopropyl-6-fluoro-4-oxo-1,4-dihydro-1,8-naphthyridine-3-carboxylic acid], the antibacterial activity result in the series on test strains is “excellent antibacterial activity”. Moreover, the figures for the “Water Solubility” value in series [1] (pH 2) and in [1] (pH 7) were 14.6 and 0.007, respectively.
Take `CON=C1CN(c2nc3c(cc2F)c(=O)c(C(=O)O)cn3C2CC2)CC1CN` (centres unmarked) [1 hydrate, 7-(4-aminomethyl-3-methyloxylminopyrrolidin-1-yl)-1-cyclopropyl-6-fluoro-4-oxo-1,4-dihydro-1,8-naphthyridine-3-carboxylic acid methanesulfonate]: in [2], the “Moisture Content” value is given as 2-4%.
Take `CON=C1CN(c2nc3c(cc2F)c(=O)c(C(=O)O)cn3C2CC2)CC1CN` (centres unmarked) [1.5 hydrate, 7-(4-aminomethyl-3-methyloxyiminopyrrolidin-1-yl)-1-cyclopropyl-6-fluoro-4-oxo-1,4-dihydro-1,8-naphthyridine-3-carboxylic acid methanesulfonate·1.5 hydrate]: the “Moisture Content” value in series [2] (hydrate) was 4-6%. For the same compound, the “stability of hydrate towards relative humidity change” value in series [3] was “stable”. Moreover, in series [3] (relative humidity 23 to 64%), the equilibrium moisture content entry is “around 5%”. The “thermal stability compared with the anhydride” value in series [4] (70° C., Table 29) was “the same degree of thermal stability as the anhydride”. Moreover, the thermal stability is listed as 95.80% in series [4] (20160 min), 96.17% in [4] (40320 min) and 100% in [4]. In addition, in series [4] (thermal stability, 1 week, 70° C.), the amount remaining (usually what is left of the initial amount, in per cent) at 168 h was determined as 97.2%. In addition, the fraction remaining at 504 h in series [4] (thermal stability, 3 weeks, 70° C.) turned out to be 97.2%.
With `CON=C1CN(c2nc3c(cc2F)c(=O)c(C(=O)O)cn3C2CC2)CC1CN` (centres unmarked) [3.5 hydrate, 7-(4-aminomethyl-3-methyloxylminopyrrolidin-1-yl)-1-cyclopropyl-6-fluoro-4-oxo-1,4-dihydro-1,8-naphthyridine-3-carboxylic acid methanesulfonate], the “Moisture Content” value in [2] is given as 11-12%.
Take `CON=C1CN(c2nc3c(cc2F)c(=O)c(C(=O)O)cn3C2CC2)CC1CN` (centres unmarked) [2.5 hydrate, 7-(4-aminomethyl-3-methyloxylminopyrrolidin-1-yl)-1-cyclopropyl-6-fluoro-4-oxo-1,4-dihydro-1,8-naphthyridine-3-carboxylic acid methanesulfonate]: in series [2], the “Moisture Content” value is reported as 8-9%.
For the compound `CON=C1CN(c2nc3c(cc2F)c(=O)c(C(=O)O)cn3C2CC2)CC1CN` (centres unmarked) [4 hydrate, 7-(4-aminomethyl-3-methyloxylminopyrrolidin-1-yl)-1-cyclopropyl-6-fluoro-4-oxo-1,4-dihydro-1,8-naphthyridine-3-carboxylic acid methanesulfonate], the “Moisture Content” value in series [2] was 12-13%.
As for `CC(C)(C)ON=C1CN(c2nc3c(cc2F)c(=O)c(C(=O)O)cn3C2CC2)CC1CN` (centres unmarked) [Example 89, 7-(4-aminomethyl-3-t-butyloxyimino-pyrrolidin-1-yl)-1-cyclopropyl-6-fluoro-1,4-dihydro-4-oxo-1,8-naphthyridine-3-carboxylic acid], the MIC is 0.13 µg/mL (≈ 0.301 µM) in [5]; 0.25 µg/mL (≈ 0.579 µM) in [6]; 2 µg/mL (≈ 4.64 µM) in series [7]; 1 µg/mL (≈ 2.32 µM) in series [8]; no more than 0.008 µg/mL with Bacillus subtilis 6633; no more than 0.008 µg/mL in series [9]. The MIC is 0.5 µg/mL (≈ 1.16 µM) in series [10]; no more than 0.008 µg/mL in series [11]; 0.25 µg/mL (≈ 0.579 µM) in series [12]; 2 µg/mL (≈ 4.64 µM) in series [13]; 0.063 µg/mL (≈ 0.146 µM) in the series with Escherichia coli 851E; 0.063 µg/mL (≈ 0.146 µM) in series [14]. For the same compound, the MIC was 0.13 µg/mL (≈ 0.301 µM) in [15]; no more than 0.008 µg/mL in series [16]; 0.016 µg/mL (≈ 0.0371 µM) with Enterobacter cloacae P99; 0.13 µg/mL (≈ 0.301 µM) in [17]; 0.031 µg/mL (≈ 0.0718 µM) in [18]; 0.25 µg/mL (≈ 0.579 µM) in the series with Micrococcus luteus 9341. The MIC was 0.016 µg/mL (≈ 0.0371 µM) with Escherichia coli 3190Y; no more than 0.008 µg/mL in the series on Staphylococcus aureus 77; 0.016 µg/mL (≈ 0.0371 µM) with Escherichia coli 10536; 0.13 µg/mL (≈ 0.301 µM) in [19]; 0.063 µg/mL (≈ 0.146 µM) in series [20]; 0.5 µg/mL (≈ 1.16 µM) in series [21]. For the same compound, the Cmax in “Pharmacokinetic test” (PO, read-out: Cmax (maximum blood concentration)) is 4890 ± 2230 ng/mL. Besides, the half-life in “Pharmacokinetic test” (PO) was 6.69 ± 2.78 h; in “Pharmacokinetic test” (IV) it was 2.29 ± 1.13 h. Also, in the series “Pharmacokinetic test” (PO, read-out: Tmax (time showing maximum blood concentration)), the Tmax is 2.18 ± 0.77 h. Besides, the bioavailability (usually dose-corrected exposure relative to a reference, in per cent) in “Pharmacokinetic test” (printed in the IV line, read-out: F (bioavailability)) was greater than 100%.
For the compound `CON=C1CN(c2nc3c(cc2F)c(=O)c(C(=O)O)cn3C2CC2)CC1CN` (centres unmarked) [Sulfurate], the “Water Solubility” value was 8.9 in [1] (pH 2) and 11.4 in series [1] (pH 7).
For `CON=C1CN(c2nc3c(cc2F)c(=O)c(C(=O)O)cn3C2CC2)CC1CN` (centres unmarked) [2 hydrate, 7-(4-aminomethyl-3-methyloxylminopyrrolidin-1-yl)-1-cyclopropyl-6-fluoro-4-oxo-1,4-dihydro-1,8-naphthyridine-3-carboxylic acid methanesulfonate], the “Moisture Content” value in series [2] is listed as 6-8%.
Take `CON=C1CN(c2nc3c(cc2F)c(=O)c(C(=O)O)cn3C2CC2)CC1CN` (centres unmarked) [Tartarate]: the solubility (in general, the dissolved amount per volume that the medium holds) in the series “physchem” (pH 2) turned out to be 15.4 mg/mL (≈ 39500 µM); in “physchem” (pH 7) it was 6.7 mg/mL (≈ 17200 µM).
